The source of these data is publication PMC8452302 (CPT: Pharmacometrics & Systems Pharmacology, 2021).

One data set has as its target T1, OATP1B3 (Homo sapiens, UniProt Q9NPD5).
T1 sequence (Q9NPD5 1-702): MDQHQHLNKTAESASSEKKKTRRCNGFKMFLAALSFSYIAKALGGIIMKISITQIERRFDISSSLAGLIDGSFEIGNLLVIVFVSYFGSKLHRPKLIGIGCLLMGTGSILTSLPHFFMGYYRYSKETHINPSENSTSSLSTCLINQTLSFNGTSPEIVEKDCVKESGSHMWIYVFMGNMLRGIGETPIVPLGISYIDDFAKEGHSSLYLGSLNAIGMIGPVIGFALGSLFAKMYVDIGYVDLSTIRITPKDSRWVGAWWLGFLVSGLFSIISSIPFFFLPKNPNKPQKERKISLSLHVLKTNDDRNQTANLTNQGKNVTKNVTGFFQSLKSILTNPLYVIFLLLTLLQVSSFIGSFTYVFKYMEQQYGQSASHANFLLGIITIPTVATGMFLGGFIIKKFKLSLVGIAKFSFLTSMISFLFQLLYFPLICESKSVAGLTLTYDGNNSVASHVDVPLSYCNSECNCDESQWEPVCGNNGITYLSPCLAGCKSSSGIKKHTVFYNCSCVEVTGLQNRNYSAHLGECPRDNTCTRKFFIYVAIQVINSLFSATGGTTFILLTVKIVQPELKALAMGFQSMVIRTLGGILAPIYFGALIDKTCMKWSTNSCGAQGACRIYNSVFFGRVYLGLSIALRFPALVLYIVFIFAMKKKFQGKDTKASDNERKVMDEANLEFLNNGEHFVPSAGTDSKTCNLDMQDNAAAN
Nature of the data set: OATP1B3-mediated transport of substrate. Type of data set: in vitro ADME. The conditions noted are these: OATP1B3-transfected HEK293 cells.

For data set [1], the target named is T2, BCRP (Homo sapiens, UniProt Q9UNQ0).
T2 sequence (Q9UNQ0 1-655): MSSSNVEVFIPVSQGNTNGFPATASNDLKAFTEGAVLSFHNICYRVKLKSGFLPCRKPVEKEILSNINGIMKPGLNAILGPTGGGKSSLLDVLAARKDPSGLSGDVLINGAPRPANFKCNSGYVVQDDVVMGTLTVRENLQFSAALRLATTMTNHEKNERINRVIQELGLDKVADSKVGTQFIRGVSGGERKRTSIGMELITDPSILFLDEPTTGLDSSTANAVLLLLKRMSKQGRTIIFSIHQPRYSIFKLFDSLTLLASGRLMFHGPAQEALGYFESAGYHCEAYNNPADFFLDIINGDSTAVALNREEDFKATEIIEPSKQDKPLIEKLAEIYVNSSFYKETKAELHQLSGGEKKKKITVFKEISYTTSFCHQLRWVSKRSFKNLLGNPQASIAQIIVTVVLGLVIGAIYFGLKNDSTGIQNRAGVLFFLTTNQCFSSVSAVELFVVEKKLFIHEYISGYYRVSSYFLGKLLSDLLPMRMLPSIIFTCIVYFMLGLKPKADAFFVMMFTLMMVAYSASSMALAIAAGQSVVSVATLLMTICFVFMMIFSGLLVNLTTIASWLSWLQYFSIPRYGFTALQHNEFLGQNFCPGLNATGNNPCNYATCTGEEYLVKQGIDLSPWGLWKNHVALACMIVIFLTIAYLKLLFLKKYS
Description: BCRP-mediated transport of substrate. Type of data set: in vitro ADME. The conditions noted are these: Estimated; optimized to recover ~40% Fa.

Data set [2] in a line: Physicochemical PBPK model inputs.
The target of the next data set is T3, OATP2B1 (Homo sapiens, UniProt O94956).
T3 sequence (O94956 1-709): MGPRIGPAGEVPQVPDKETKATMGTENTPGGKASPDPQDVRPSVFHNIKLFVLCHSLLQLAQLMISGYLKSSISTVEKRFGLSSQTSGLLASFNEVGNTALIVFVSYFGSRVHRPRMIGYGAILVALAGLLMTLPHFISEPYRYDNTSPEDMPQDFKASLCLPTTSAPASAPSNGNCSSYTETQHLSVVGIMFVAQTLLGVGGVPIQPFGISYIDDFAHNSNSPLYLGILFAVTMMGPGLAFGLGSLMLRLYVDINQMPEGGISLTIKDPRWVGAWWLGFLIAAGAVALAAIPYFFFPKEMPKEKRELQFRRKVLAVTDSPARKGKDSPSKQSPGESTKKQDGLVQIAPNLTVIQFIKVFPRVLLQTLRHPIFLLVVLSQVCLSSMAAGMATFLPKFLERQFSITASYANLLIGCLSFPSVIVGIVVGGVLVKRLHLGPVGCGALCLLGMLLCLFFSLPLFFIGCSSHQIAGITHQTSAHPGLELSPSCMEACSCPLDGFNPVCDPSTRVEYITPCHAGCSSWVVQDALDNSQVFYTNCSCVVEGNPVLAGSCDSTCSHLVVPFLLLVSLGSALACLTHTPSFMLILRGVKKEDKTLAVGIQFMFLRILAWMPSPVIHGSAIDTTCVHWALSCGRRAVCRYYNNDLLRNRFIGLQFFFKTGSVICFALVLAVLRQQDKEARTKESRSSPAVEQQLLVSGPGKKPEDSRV
Nature of the data set: OATP2B1-mediated transport of substrate. Type of data set: in vitro ADME. As to conditions: Estimated; optimized to recover ~40% Fa.

For data set [3] the following is noted: cited from earlier work.
Data set [4] has as its target T2, BCRP. As to conditions: read-out: BCRP Km; membrane vesicle assay; cited from earlier work.
A further data set in a line: Caco-2 permeability. The data set is classed as in vitro ADME. The conditions noted are these: human.
Data set [5] can be described thus: Passive transport clearance. The data set is classed as in vitro ADME, human. The conditions noted are these: Measured using SCHH.
The subject of data set [6] is OATP1B1, OATP1B3, and OATP2B1. Nature of the data set: SLC-phenotyping of hepatic uptake. Type of data set: in vitro ADME, human. The conditions noted are these: SLC-phenotyping methodology.

SMILES strings stand for the structures.

As for `CC(C)c1nc(N(C)S(C)(=O)=O)nc(-c2ccc(F)cc2)c1/C=C/[C@@H](O)C[C@@H](O)CC(=O)O` [Rosuvastatin, rosuvastatin], at OATP1B3, the Km amounted to 28.3 µM. The “Intestinal BCRP Jmax” value on BCRP [1] was 380 pmol/min. The pKa in data set [2] worked out at 4.33. Further, the “Intestinal OATP2B1 CLint,T” value on OATP2B1 was 0.002 µL/min. In [3], the “contribution of OAT3-mediated active secretion to renal clearance” value is reported as “greater than 90%”, the glomerular filtration rate is recorded as ~ 0.22 ml/min/kg and the renal clearance was ~ 2.6 ml/min/kg. Further, the oral bioavailability in [3] (human, in vivo, po) was ~ 20%. In addition, the Km on BCRP [4] is 10.8 µM. The same compound showed a Papp in the data set “Caco-2 permeability” of 1.2 ×10⁻⁶ cm/s. Moreover, the “CLPD basal (hepatic and renal)” value in [5] is 1.1 µl/min/10^6. Further, the “share of active hepatic uptake driven by OATP1B1, OATP1B3, and OATP2B1” value in [6] is ~ 95%.
